Measured values reported in ChEMBL document CHEMBL4507259 (2021).

Assays:
[1] = test system: DU-145; test: DU-145 Proliferation; type: functional, cell-based; settings: Homo sapiens
[2] = biological target: Sodium-dependent noradrenaline transporter (Homo sapiens) (UniProt P23975); test: norepinephrine transporter (h) CEREP ligand profiling; settings: filed as antagonist, Compound concentration 10.0 uM
[3] = biological target: Delta-type opioid receptor (Homo sapiens) (UniProt P41143); test: delta (DOP) (h) CEREP ligand profiling; settings: filed as agonist, Compound concentration 10.0 uM
[4] = biological target: 5-hydroxytryptamine receptor 4 (Homo sapiens) (UniProt Q13639); test: 5-HT4e (h) CEREP ligand profiling; settings: filed as antagonist, Compound concentration 10.0 uM
[5] = biological target: Tumor necrosis factor (Homo sapiens) (UniProt P01375); test: TNF-alpha (h) CEREP ligand profiling; settings: filed as agonist, Compound concentration 10.0 uM
[6] = biological target: Androgen receptor (Homo sapiens) (UniProt P10275); test: AR (h) CEREP ligand profiling; settings: filed as agonist, Compound concentration 10.0 uM
[7] = biological target: Muscarinic acetylcholine receptor M3 (Homo sapiens) (UniProt P20309); test: M3 (h) CEREP ligand profiling; settings: filed as antagonist, Compound concentration 10.0 uM
[8] = test system: Tyrosine-protein kinase ABL1 (Homo sapiens), P00519 [E255K]; settings: Compound concentration 1000.0 nM
[9] = test system: Tyrosine-protein kinase ABL1 (Homo sapiens), P00519 [F317I]; settings: Compound concentration 1000.0 nM
[10] = test system: Tyrosine-protein kinase ABL1 (Homo sapiens), P00519 [F317I]; settings: Compound concentration 1000.0 nM; remark: listed apart in the source
[11] = biological target: Calcium/calmodulin-dependent protein kinase type II subunit beta (Homo sapiens) (UniProt Q13554); settings: Compound concentration 1000.0 nM
[12] = biological target: Cyclin-dependent kinase 4 (Homo sapiens) (UniProt P11802); settings: Compound concentration 1000.0 nM
[13] = biological target: Cyclin-dependent kinase 8 (Homo sapiens) (UniProt P49336); settings: Compound concentration 1000.0 nM
[14] = biological target: Casein kinase I isoform alpha-like (Homo sapiens) (UniProt Q8N752); settings: Compound concentration 1000.0 nM
[15] = biological target: Megakaryocyte-associated tyrosine-protein kinase (Homo sapiens) (UniProt P42679); settings: Compound concentration 1000.0 nM
[16] = biological target: Death-associated protein kinase 2 (Homo sapiens) (UniProt Q9UIK4); settings: Compound concentration 1000.0 nM
[17] = biological target: Serine/threonine-protein kinase 17A (Homo sapiens) (UniProt Q9UEE5); settings: Compound concentration 1000.0 nM
[18] = biological target: Ephrin type-A receptor 1 (Homo sapiens) (UniProt P21709); settings: Compound concentration 1000.0 nM
[19] = biological target: Receptor tyrosine-protein kinase erbB-3 (Homo sapiens) (UniProt P21860); settings: Compound concentration 1000.0 nM
[20] = biological target: Receptor-type tyrosine-protein kinase FLT3 (Homo sapiens) (UniProt P36888); settings: Compound concentration 1000.0 nM
[21] = biological target: Beta-adrenergic receptor kinase 1 (Homo sapiens) (UniProt P25098); settings: Compound concentration 1000.0 nM
[22] = biological target: Glycogen synthase kinase-3 beta (Homo sapiens) (UniProt P49841); settings: Compound concentration 1000.0 nM
[23] = biological target: Mitogen-activated protein kinase kinase kinase kinase 1 (Homo sapiens) (UniProt Q92918); settings: Compound concentration 1000.0 nM
[24] = biological target: Serine/threonine-protein kinase 10 (Homo sapiens) (UniProt O94804); settings: Compound concentration 1000.0 nM
[25] = biological target: Serine/threonine-protein kinase MAK (Homo sapiens) (UniProt P20794); settings: Compound concentration 1000.0 nM
[26] = biological target: Mitogen-activated protein kinase kinase kinase 2 (Homo sapiens) (UniProt Q9Y2U5); settings: Compound concentration 1000.0 nM
[27] = biological target: Hepatocyte growth factor receptor (Homo sapiens) (UniProt P08581); settings: Compound concentration 1000.0 nM
[28] = biological target: Serine/threonine-protein kinase MRCK alpha (Homo sapiens) (UniProt Q5VT25); settings: Compound concentration 1000.0 nM
[29] = biological target: Serine/threonine-protein kinase Nek6 (Homo sapiens) (UniProt Q9HC98); settings: Compound concentration 1000.0 nM
[30] = test system: Phosphatidylinositol 4,5-bisphosphate 3-kinase catalytic subunit alpha isoform (Homo sapiens), P42336 [C420R]; settings: Compound concentration 1000.0 nM
[31] = test system: Phosphatidylinositol 4,5-bisphosphate 3-kinase catalytic subunit alpha isoform (Homo sapiens), P42336 [E545A]; settings: Compound concentration 1000.0 nM
[32] = test system: Phosphatidylinositol 4,5-bisphosphate 3-kinase catalytic subunit alpha isoform (Homo sapiens), P42336 [E545K]; settings: Compound concentration 1000.0 nM
[33] = test system: Phosphatidylinositol 4,5-bisphosphate 3-kinase catalytic subunit alpha isoform (Homo sapiens), P42336 [Q546K]; settings: Compound concentration 1000.0 nM
[34] = biological target: Serine/threonine-protein kinase pim-1 (Homo sapiens) (UniProt P11309); settings: Compound concentration 1000.0 nM
[35] = biological target: Phosphatidylinositol 5-phosphate 4-kinase type-2 beta (Homo sapiens) (UniProt P78356); settings: Compound concentration 1000.0 nM
[36] = biological target: Dual serine/threonine and tyrosine protein kinase (Homo sapiens) (UniProt Q6XUX3); settings: Compound concentration 1000.0 nM
[37] = biological target: Ribosomal protein S6 kinase alpha-5 (Homo sapiens) (UniProt O75582); settings: Compound concentration 1000.0 nM
[38] = biological target: Ribosomal protein S6 kinase alpha-6 (Homo sapiens) (UniProt Q9UK32); settings: Compound concentration 1000.0 nM
[39] = biological target: Uncharacterized serine/threonine-protein kinase SBK3 (Homo sapiens) (UniProt P0C264); settings: Compound concentration 1000.0 nM
[40] = biological target: Tyrosine-protein kinase Srms (Homo sapiens) (UniProt Q9H3Y6); settings: Compound concentration 1000.0 nM
[41] = biological target: Serine/threonine-protein kinase 33 (Homo sapiens) (UniProt Q9BYT3); settings: Compound concentration 1000.0 nM
[42] = biological target: High affinity nerve growth factor receptor (Homo sapiens) (UniProt P04629); settings: Compound concentration 1000.0 nM
[43] = biological target: Serine/threonine-protein kinase 25 (Homo sapiens) (UniProt O00506); settings: Compound concentration 1000.0 nM
[44] = biological target: Mitogen-activated protein kinase kinase kinase 19 (Homo sapiens) (UniProt Q56UN5); settings: Compound concentration 1000.0 nM
[45] = biological target: Histamine H2 receptor (Homo sapiens) (UniProt P25021); settings: Compound concentration 10.0 uM

Tyrosine-protein kinase ABL1 (Homo sapiens), P00519 [F317I], sequence (P00519 whole entry F317I): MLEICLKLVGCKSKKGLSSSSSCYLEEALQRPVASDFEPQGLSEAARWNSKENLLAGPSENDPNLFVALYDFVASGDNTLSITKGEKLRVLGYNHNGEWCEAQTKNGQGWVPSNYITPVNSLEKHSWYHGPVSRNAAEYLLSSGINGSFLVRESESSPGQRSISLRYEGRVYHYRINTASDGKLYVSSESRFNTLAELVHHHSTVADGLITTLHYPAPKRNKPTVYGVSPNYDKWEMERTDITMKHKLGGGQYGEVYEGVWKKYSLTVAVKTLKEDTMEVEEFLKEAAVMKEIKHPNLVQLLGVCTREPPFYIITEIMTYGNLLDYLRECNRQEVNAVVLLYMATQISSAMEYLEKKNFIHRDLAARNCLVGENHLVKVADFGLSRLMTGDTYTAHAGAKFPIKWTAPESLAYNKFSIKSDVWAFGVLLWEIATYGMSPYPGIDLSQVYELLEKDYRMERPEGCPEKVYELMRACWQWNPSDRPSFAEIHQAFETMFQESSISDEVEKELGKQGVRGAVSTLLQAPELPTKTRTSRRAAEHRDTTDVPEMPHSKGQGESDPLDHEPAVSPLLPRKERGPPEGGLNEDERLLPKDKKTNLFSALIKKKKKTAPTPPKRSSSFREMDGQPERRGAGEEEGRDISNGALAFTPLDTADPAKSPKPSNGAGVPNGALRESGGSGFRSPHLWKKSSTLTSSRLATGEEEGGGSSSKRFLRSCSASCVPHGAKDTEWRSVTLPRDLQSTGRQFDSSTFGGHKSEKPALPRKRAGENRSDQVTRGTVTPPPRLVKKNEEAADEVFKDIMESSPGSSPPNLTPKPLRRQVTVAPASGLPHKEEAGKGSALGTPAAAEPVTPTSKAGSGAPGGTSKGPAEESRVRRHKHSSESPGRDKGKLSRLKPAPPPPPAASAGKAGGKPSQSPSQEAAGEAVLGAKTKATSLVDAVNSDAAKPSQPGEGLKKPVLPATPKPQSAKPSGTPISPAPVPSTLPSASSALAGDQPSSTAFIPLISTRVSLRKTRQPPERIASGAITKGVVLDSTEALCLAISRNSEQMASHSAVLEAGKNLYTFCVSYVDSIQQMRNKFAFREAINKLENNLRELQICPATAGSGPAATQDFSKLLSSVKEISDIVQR
Tyrosine-protein kinase ABL1 (Homo sapiens), P00519 [E255K], sequence (P00519 whole entry E255K): as the sequence (P00519 whole entry F317I) above, with E255K, I317F counted along it
Muscarinic acetylcholine receptor M3 (Homo sapiens), sequence (P20309 whole entry, looked up): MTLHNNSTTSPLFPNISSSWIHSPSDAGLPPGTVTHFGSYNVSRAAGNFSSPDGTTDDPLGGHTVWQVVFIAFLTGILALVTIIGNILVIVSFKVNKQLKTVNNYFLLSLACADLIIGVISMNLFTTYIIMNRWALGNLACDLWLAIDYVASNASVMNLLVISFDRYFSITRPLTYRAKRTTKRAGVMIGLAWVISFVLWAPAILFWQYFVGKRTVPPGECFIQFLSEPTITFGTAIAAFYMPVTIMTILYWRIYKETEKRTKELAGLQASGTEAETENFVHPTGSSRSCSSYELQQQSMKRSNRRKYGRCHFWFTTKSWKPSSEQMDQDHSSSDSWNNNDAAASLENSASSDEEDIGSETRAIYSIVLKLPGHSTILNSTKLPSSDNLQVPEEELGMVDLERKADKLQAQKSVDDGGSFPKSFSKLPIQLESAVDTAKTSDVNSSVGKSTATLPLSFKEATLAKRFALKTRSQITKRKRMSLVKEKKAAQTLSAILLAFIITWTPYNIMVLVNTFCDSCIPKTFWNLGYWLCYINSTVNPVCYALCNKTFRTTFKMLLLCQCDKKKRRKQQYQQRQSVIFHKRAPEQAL
Mitogen-activated protein kinase kinase kinase 19 (Homo sapiens), sequence (Q56UN5 whole entry): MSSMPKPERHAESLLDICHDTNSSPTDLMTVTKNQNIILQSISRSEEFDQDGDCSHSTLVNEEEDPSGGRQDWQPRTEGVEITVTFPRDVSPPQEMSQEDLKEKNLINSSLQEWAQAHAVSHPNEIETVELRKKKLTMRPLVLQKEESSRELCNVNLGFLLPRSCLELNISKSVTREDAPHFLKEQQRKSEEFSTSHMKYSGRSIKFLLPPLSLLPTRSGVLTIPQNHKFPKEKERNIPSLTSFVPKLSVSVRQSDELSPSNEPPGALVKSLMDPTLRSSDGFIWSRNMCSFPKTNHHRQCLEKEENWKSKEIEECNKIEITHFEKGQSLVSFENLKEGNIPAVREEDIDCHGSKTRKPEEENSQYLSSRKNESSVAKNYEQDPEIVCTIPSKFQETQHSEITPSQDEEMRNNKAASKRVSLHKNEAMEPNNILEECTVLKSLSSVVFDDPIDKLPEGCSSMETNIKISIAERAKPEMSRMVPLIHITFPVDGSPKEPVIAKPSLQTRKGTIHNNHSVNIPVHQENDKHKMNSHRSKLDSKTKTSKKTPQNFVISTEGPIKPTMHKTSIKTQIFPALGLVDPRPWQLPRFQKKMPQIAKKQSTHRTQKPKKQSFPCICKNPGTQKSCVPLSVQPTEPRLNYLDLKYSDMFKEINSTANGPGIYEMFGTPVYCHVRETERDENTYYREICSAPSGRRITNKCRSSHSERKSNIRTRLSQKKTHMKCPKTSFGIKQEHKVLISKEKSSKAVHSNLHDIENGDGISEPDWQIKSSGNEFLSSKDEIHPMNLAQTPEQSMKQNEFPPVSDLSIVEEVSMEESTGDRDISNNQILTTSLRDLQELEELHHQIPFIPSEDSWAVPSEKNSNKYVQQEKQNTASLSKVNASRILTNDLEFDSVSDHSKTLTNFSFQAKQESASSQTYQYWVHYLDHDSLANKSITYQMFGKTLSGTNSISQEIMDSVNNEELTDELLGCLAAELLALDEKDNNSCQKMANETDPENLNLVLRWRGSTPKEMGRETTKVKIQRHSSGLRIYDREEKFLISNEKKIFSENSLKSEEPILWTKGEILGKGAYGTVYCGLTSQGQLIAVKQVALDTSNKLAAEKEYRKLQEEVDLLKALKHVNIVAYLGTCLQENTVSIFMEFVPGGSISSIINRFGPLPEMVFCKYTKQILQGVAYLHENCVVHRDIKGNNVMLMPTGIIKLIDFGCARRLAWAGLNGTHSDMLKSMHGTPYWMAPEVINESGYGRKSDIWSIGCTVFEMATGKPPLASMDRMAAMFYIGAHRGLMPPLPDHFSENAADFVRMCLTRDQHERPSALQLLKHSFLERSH
Megakaryocyte-associated tyrosine-protein kinase (Homo sapiens), sequence (P42679 whole entry): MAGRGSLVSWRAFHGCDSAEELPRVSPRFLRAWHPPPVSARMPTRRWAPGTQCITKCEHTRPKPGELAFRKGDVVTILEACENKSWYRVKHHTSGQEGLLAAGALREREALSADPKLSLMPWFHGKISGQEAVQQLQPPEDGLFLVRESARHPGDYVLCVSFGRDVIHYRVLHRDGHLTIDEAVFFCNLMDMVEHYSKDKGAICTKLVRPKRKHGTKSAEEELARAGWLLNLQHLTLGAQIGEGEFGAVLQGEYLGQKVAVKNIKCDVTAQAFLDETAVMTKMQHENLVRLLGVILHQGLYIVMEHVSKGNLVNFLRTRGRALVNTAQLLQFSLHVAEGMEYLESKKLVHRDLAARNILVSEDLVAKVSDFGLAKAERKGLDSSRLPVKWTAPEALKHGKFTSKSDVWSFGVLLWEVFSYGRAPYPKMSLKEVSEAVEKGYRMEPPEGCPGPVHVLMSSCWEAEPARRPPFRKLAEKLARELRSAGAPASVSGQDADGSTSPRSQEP
Ephrin type-A receptor 1 (Homo sapiens), sequence (P21709 whole entry): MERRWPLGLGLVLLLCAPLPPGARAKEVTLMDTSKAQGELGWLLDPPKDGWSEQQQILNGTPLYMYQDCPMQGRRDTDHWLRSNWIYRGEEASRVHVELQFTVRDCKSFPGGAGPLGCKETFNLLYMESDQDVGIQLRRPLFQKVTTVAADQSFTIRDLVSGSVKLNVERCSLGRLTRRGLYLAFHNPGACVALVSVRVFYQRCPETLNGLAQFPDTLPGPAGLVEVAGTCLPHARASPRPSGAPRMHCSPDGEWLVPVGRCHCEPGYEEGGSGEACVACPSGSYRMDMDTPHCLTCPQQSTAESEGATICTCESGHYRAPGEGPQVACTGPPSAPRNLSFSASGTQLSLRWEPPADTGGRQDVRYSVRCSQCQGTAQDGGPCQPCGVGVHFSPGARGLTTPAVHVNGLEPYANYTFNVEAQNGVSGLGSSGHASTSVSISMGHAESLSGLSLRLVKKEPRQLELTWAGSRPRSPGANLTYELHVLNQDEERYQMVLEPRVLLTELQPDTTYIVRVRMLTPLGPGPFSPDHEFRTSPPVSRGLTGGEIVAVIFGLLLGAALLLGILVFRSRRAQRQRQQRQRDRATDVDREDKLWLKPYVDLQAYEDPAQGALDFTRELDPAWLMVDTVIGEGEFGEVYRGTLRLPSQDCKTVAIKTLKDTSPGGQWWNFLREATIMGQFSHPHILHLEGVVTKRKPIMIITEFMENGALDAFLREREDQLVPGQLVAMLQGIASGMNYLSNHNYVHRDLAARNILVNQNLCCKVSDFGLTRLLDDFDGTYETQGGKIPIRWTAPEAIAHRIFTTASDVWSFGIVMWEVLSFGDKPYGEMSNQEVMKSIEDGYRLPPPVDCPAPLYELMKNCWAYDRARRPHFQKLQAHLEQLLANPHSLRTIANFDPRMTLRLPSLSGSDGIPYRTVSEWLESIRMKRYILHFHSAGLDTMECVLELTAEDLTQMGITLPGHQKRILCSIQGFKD
5-hydroxytryptamine receptor 4 (Homo sapiens), sequence (Q13639 whole entry): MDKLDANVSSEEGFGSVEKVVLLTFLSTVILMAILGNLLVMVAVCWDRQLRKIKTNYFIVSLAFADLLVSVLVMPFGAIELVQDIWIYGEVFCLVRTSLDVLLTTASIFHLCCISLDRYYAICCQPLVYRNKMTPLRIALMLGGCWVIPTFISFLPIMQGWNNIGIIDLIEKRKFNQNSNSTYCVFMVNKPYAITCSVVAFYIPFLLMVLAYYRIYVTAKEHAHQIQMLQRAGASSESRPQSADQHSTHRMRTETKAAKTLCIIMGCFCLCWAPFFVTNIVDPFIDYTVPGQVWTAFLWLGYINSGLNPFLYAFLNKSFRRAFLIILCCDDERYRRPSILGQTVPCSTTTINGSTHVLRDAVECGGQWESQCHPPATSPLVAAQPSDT

## CNC(=O)Nc1ccc2c(c1)CC[C@@]21OC(=O)N(CC(=O)N(Cc2ccc(F)cc2)[C@@H](C)C(F)(F)F)C1=O [A-485]
[1]
  IC50: > 10 µM (not active)
[2]
  inhibition: 12%
[3]
  inhibition: 11%
[4]
  inhibition: 10%
[5]
  inhibition: 1%
[6]
  inhibition: -4%
[7]
  inhibition: -5%
[8]
  residual activity: 75%
[9]
  residual activity: 71%
[10]
  residual activity: 87%
[11]
  residual activity: 81%
[12]
  residual activity: 91%
[13]
  residual activity: 100%
[14]
  residual activity: 88%
[15]
  residual activity: 71%
[16]
  residual activity: 92%
[17]
  residual activity: 100%
[18]
  residual activity: 88%
[19]
  residual activity: 89%
[20]
  residual activity: 100%
[21]
  residual activity: 74%
[22]
  residual activity: 82%
[23]
  residual activity: 99%
[24]
  residual activity: 100%
[25]
  residual activity: 84%
[26]
  residual activity: 100%
[27]
  residual activity: 88%
[28]
  residual activity: 100%
[29]
  residual activity: 86%
[30]
  residual activity: 80%
[31]
  residual activity: 91%
[32]
  residual activity: 80%
[33]
  residual activity: 79%
[34]
  residual activity: 100%
[35]
  residual activity: 69%
[36]
  residual activity: 78%
[37]
  residual activity: 63%
[38]
  residual activity: 84%
[39]
  residual activity: 93%
[40]
  residual activity: 83%
[41]
  residual activity: 100%
[42]
  residual activity: 81%
[43]
  residual activity: 99%
[44]
  residual activity: 78%
[45]
  inhibition: 28.2%

## CNC(=O)Nc1ccc2c(c1)[C@@]1(CC2)OC(=O)N(CC(=O)N(Cc2ccc(F)cc2)[C@@H](C)C(F)(F)F)C1=O [A-486]
[1]
  IC50: > 10 µM (not active)
[2]
  inhibition: 4%
[3]
  inhibition: 1%
[4]
  inhibition: 9%
[5]
  inhibition: 1%
[6]
  inhibition: 4%
[7]
  inhibition: 0%
[8]
  residual activity: 100%
[9]
  residual activity: 78%
[10]
  residual activity: 73%
[11]
  residual activity: 100%
[12]
  residual activity: 75%
[13]
  residual activity: 96%
[14]
  residual activity: 100%
[15]
  residual activity: 100%
[16]
  residual activity: 100%
[17]
  residual activity: 88%
[18]
  residual activity: 100%
[19]
  residual activity: 81%
[20]
  residual activity: 96%
[21]
  residual activity: 76%
[22]
  residual activity: 95%
[23]
  residual activity: 90%
[24]
  residual activity: 92%
[25]
  residual activity: 100%
[26]
  residual activity: 100%
[27]
  residual activity: 100%
[28]
  residual activity: 98%
[29]
  residual activity: 100%
[30]
  residual activity: 80%
[31]
  residual activity: 97%
[32]
  residual activity: 76%
[33]
  residual activity: 81%
[34]
  residual activity: 100%
[35]
  residual activity: 60%
[36]
  residual activity: 89%
[37]
  residual activity: 72%
[38]
  residual activity: 100%
[39]
  residual activity: 100%
[40]
  residual activity: 88%
[41]
  residual activity: 100%
[42]
  residual activity: 41%
[43]
  residual activity: 100%
[44]
  residual activity: 73%
[45]
  inhibition: 6.93%
